Consider 25 compounds from patent publication US20080085886A1, “Aza-benzofuranyl compounds and methods of use” (GENENTECH, INC., priority 2006, published 2008).

Test [1] has as its system HCT 116 human colorectal carcinoma / A375 human malignant melanoma cell lines. Nature of the test: Cell proliferation assay (CellTiter-Glo), Example 3. In kind it is cell-based. The settings on record: in either one of the cell lines (HCT 116, A375), 72 h. Here is the method:
Example 3 Cell Proliferation Assay
Compounds are tested in a cell proliferation assay using the following cell lines:
HCT 116 human colorectal carcinoma (ATCC)
(§1) A375 human malignant melanoma (ATCC)
(§2) Both cell lines are maintained in DMEM/F12 (1:1) media (Gibco) supplemented with 10% FCS at 37° C. in a 5% CO2 humidified incubator.
Cells are seeded in 96-well plates at 2,000 cells/well and after 24 hours they are exposed to different concentrations of compounds in 0.83% DMSO. Cells are grown for a further 72 h, and an equal volume of CellTiter-Glo reagent (Promega) is added to each well. This lyses the cells and generates a luminescent signal proportional to the amount of ATP released (and therefore proportional to the number of cells in the well) that can be detected using a multiwell luminometer.
EC50 values are calculated using the XLfit software package (version 2.0.5).

The test system of test [2] is cellular p-ERK in HCT116 human colorectal carcinoma / A375 human malignant melanoma cell lines. Nature of the test: Phospho-ERK cell-based assay (ELISA), Example 4. The settings on record: in either one of the cell lines (HCT116, A375), 2 h or 24 h exposure. Here is the method:
Example 4 Phospho-ERK Cell-Based Assay
Compounds are tested in a cell-based phospho-ERK ELISA using the following cell lines:
HCT116 human colorectal carcinoma (ATCC)
as §1, §2
Cells are seeded in 96-well plates at 2,000 cells/well and after 24 h they are exposed to different concentrations of compounds in 0.83% DMSO. Cells are grown for a further 2 h or 24 h, fixed with formaldehyde (2% final) and permeabilised with methanol. Following blocking with TBST-3% BSA, fixed cells are incubated with primary antibody (anti-phospho ERK from rabbit) over-night at 4° C. Cells are incubated with Propidium Iodide (DNA fluorescent dye) and detection of cellular p-ERK is performed using an anti-rabbit secondary antibody conjugated to the fluorescent Alexa Fluor 488 dye (Molecular probes). The fluorescence is analysed using the Acumen Explorer (TTP Labtech), a laser-scanning microplate cytometer, and the Alexa Fluor 488 signal is normalised to the PI signal (proportional to cell number).
The EC50 is defined as the concentration at which a given compound achieves a signal half way between the baseline and the maximum response. EC50 values are calculated using the XLfit software package (version 2.0.5).

The structures appear in SMILES notation.

By EC50 is commonly meant the midpoint of the concentration-response curve. A higher EC50 goes with a less potent agent.

For the compound `O=C(NOC[C@H](O)CO)c1oc2ccncc2c1Nc1ccc(I)cc1F` [Example 5, 3-(2-Fluoro-4-iodo-phenylamino)-furo[3,2-c]pyridine-2-carboxylic acid ((R)-2,3-dihydroxy-propoxy)-amide], the EC50 in test [1] and in test [2] was less than 10 µM in each case.
For the compound `O=C(NOC[C@H](O)CO)c1oc2ccncc2c1Nc1ccc(Br)cc1F` [Example 6, 3-(2-Fluoro-4-bromo-phenylamino)-furo[3,2-c]pyridine-2-carboxylic acid ((R)-2,3-dihydroxy-propoxy)-amide], the EC50 in test [1] and in test [2] was less than 10 µM in each case.
As for `C#Cc1ccc(Nc2c(C(=O)NOC[C@H](O)CO)oc3ccncc23)c(F)c1` [Example 7, 3-(4-Ethynyl-2-fluoro-phenylamino)-furo[3,2-c]pyridine-2-carboxylic acid ((R)-2,3-dihydroxy-propoxy)-amide], the EC50 in test [1] and in test [2] was less than 10 µM each time.
With `O=C(NOCC1CC1)c1oc2ccncc2c1Nc1ccc(I)cc1F` [Example 8, 3-(2-Fluoro-4-iodo-phenylamino)-furo[3,2-c]pyridine-2-carboxylic acid cyclopropylmethoxy-amide], the EC50 in test [1] and in test [2] was less than 10 µM each time.
In the case of `O=C(NOC[C@H](O)CO)c1oc2cnccc2c1Nc1ccc(I)cc1F` [Example 9, 3-(2-Fluoro-4-iodo-phenylamino)-furo[2,3-c]pyridine-2-carboxylic acid ((R)-2,3-dihydroxy-propoxy)-amide], the EC50 in test [1] and in test [2] was less than 10 µM throughout.
Consider `O=C(NOCCO)c1oc2ccncc2c1Nc1ccc(I)cc1F` [Example 10, 3-(2-Fluoro-4-iodo-phenylamino)-furo[3,2-c]pyridine-2-carboxylic acid (2-hydroxy-ethoxy)-amide], for which the EC50 in test [1] and in test [2] was less than 10 µM throughout.
Regarding `C=COCCONC(=O)c1oc2ccncc2c1Nc1ccc(I)cc1F` [Example 11, 3-(2-Fluoro-4-iodo-phenylamino)-furo[3,2-c]pyridine-2-carboxylic acid (2-vinyloxy-ethoxy)-amide], the EC50 in test [1] and in test [2] was less than 10 µM throughout.
With `O=C(NOC[C@H](O)CO)c1oc2ccncc2c1Nc1ccc(I)cc1` [Example 12, 3-(4-Iodo-phenylamino)-furo[3,2-c]pyridine-2-carboxylic acid ((R)-2,3-dihydroxy-propoxy)-amide], the EC50 in test [1] and in test [2] was less than 10 µM throughout.
In test [2], `C[C@H](O)CONC(=O)c1oc2ccncc2c1Nc1ccc(I)cc1F` [Example 118, 3-(2-Fluoro-4-iodo-phenylamino)-furo[3,2-c]pyridine-2-carboxylic acid ((S)-2-hydroxy-propoxy)-amide] displayed an EC50 of less than 10 µM.
The same measure, in the same setting: next, `CC1(O)CCN(C(=O)c2oc3ccncc3c2Nc2ccc(I)cc2F)C1` (stereo not drawn) [Example 120, (3-(2-fluoro-4-iodophenylamino)furo[3,2-c]pyridine-2-yl)(3-hydroxy-3-methylpyrrolidin-1-yl)methanone]: less than 10 µM; `O=C(c1oc2ccncc2c1Nc1ccc(I)cc1F)N1CC(O)C1` [Example 122, (3-(2-fluoro-4-iodophenylamino)furo[3,2-c]pyridin-2-yl)(3-hydroxyazetidin-1-yl)methanone]: less than 10 µM; `O=C(c1oc2ccncc2c1Nc1ccc(I)cc1F)N1CC[C@@H](O)[C@H]1CO` [Example 123]: less than 10 µM.
On the same count and under the same terms, next, `O=C(c1oc2ccncc2c1Nc1ccc(I)cc1F)N1C[C@@H](O)[C@H](O)[C@H]1CO` [Example 124, (3-(2-fluoro-4-iodophenylamino)furo[3,2-c]pyridin-2-yl)((2R,3R,4R)-3,4-dihydroxy-2-(hydroxymethyl)pyrrolidin-1-yl)methanone]: less than 10 µM; `O=C(c1oc2ccncc2c1Nc1ccc(I)cc1F)N1C[C@H](O)C[C@@H]1CO` [Example 126, (3-(2-fluoro-4-iodophenylamino)furo[3,2-c]pyridin-2-yl)((2R,4R)-4-hydroxy-2-(hydroxymethyl)pyrrolidin-1-yl)methanone]: less than 10 µM; `O=C(c1oc2ccncc2c1Nc1ccc(I)cc1F)N1C[C@H](O)C[C@H]1CO` [Example 127, (3-(2-fluoro-4-iodophenylamino)furo[3,2-c]pyridin-2-yl)((2S,4R)-4-hydroxy-2-(hydroxymethyl)pyrrolidin-1-yl)methanone]: less than 10 µM.
In turn, `O=C(c1oc2ccncc2c1Nc1ccc(I)cc1F)N1CC[C@H](O)[C@H]1CO` [Example 131, (3-(2-fluoro-4-iodophenylamino)furo[3,2-c]pyridin-2-yl)((2R,3S)-3-hydroxy-2-(hydroxymethyl)pyrrolidin-1-yl)methanone] had an EC50 in test [2] of less than 10 µM.
In the case of `O=C(NOCCO)c1oc2c(F)cncc2c1Nc1ccc(I)cc1F` [Example 139, 7-Fluoro-3-(2-fluoro-4-iodo-phenylamino)-furo[3,2-c]pyridine-2-carboxylic acid (2-hydroxy-ethoxy)-amide], the EC50 in test [2] was less than 10 µM.
On the same count and under the same terms, then `Cc1nccc2oc(C(=O)NOCCO)c(Nc3ccc(I)cc3F)c12` [Example 144, 3-(2-Fluoro-4-iodo-phenylamino)-methyl-furo[3,2-c]pyridine-2-carboxylic acid (2-hydroxy-ethoxy)-amide], with less than 10 µM.
As to `O=C(NOCCO)c1oc2ccnc(Cl)c2c1Nc1ccc(I)cc1F` [Example 147, 4-Chloro-3-(2-fluoro-4-iodo-phenylamino)-furo[3,2-c]pyridine-2-carboxylic acid (2-hydroxy-ethoxy)-amide], the EC50 in test [2] is less than 10 µM.
`CSc1ccc(Nc2c(C(=O)NOCCO)oc3c(Cl)cncc23)c(F)c1` [Example 152, 7-Chloro-3-(2-fluoro-4-methylsulfanyl-phenylamino)-furo[3,2-c]pyridine-2-carboxylic acid (2-hydroxy-ethoxy)-amide] gave an EC50 in test [2] of less than 10 µM.
Same read-out and setting: then `C[C@H](O)CONC(=O)c1oc2c(F)cncc2c1Nc1ccc(I)cc1F` [Example 155, 7-Fluoro-3-(2-fluoro-4-iodo-phenylamino)-furo[3,2-c]pyridine-2-carboxylic acid ((S)-2-hydroxy-propoxy)-amide], with less than 10 µM; and `CC(C)(CO)ONC(=O)c1oc2c(F)cncc2c1Nc1ccc(I)cc1F` [Example 156, 7-Fluoro-3-(2-fluoro-4-iodo-phenylamino)-furo[3,2-c]pyridine-2-carboxylic acid (2-hydroxy-1,1-dimethyl-ethoxy)-amide], with less than 10 µM.
`O=C(c1oc2c(F)cncc2c1Nc1ccc(I)cc1F)N1CC[C@@H](O)C1` [Example 157, [7-Fluoro-3-(2-fluoro-4-iodo-phenylamino)-furo[3,2-c]pyridin-2-yl]-((R)-3-hydroxy-pyrrolidin-1-yl)-methanone] showed a concentration giving a half-maximal response (EC50) in test [2] of less than 10 µM.
Same read-out and setting: next, `O=C(c1oc2c(F)cncc2c1Nc1ccc(I)cc1F)N1C[C@H](O)[C@@H](O)C1` [Example 158, ((3S,4S)-3,4-Dihydroxy-pyrrolidin-1-yl)-[7-fluoro-3-(2-fluoro-4-iodo-phenylamino)-furo[3,2-c]pyridin-2-yl]-methanone]: less than 10 µM; `O=C(NOC[C@H](O)CO)c1oc2c(F)cncc2c1Nc1ccc(I)cc1F` [Example 159, 7-Fluoro-3-(2-fluoro-4-iodo-phenylamino)-furo[3,2-c]pyridine-2-carboxylic acid ((R)-2,3-dihydroxy-propoxy)-amide]: less than 10 µM.
